Results from ChEMBL document CHEMBL3301562, “MMV Box screening against Plasmodium falciparum protein kinases and aminoacyl tRNA synthetases”.
pIC50: −log10 of the molar value.

Tests used:
Format in all cases: functional
[1] = target: T1, Proline--tRNA ligase (Plasmodium falciparum (isolate 3D7), UniProt Q8I5R7); experiment: MMV: ProRS recombinant Plasmodium falciparum Prolyl-tRNA-synthetase, assay with yeast tRNA, ATP, and proline and 3 uM MMV malaria box compound, assay read out with kinase glo as % inhibition.
T1 sequence (Q8I5R7 whole entry): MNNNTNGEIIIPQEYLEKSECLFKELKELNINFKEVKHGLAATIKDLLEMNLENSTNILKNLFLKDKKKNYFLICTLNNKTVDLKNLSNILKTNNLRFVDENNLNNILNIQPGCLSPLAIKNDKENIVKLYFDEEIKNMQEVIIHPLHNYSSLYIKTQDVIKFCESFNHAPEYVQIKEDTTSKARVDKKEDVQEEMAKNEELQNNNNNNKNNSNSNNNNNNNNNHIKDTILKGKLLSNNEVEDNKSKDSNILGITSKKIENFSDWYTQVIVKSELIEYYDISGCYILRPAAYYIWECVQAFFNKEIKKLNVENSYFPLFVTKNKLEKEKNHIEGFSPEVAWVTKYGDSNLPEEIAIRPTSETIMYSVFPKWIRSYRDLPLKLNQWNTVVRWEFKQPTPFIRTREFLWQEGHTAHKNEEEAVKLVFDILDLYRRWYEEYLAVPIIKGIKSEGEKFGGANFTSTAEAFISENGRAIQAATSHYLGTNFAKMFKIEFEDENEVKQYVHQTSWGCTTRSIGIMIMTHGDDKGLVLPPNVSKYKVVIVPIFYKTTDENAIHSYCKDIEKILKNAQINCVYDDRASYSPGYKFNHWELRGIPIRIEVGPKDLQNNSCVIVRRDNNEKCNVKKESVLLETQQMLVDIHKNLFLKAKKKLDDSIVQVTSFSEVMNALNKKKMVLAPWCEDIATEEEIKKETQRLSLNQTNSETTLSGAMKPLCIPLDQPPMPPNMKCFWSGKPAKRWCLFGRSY

[2] = target: T2, Cdk-related protein kinase 6 (Plasmodium falciparum, UniProt O77239); experiment: Final concentrations were 1.5 uM ATP, 5 mM MnCl2, and 15 ug/ml PK6 in a buffer of 100 mM Tris-HCl (pH 7.5). 50 ug/mL MBP was provided as the substrate; 10 uM staurosporine was used as a control inhibitor. Incubation time was 3 hours and 40 minutes.The catalytic activity of each kinase was considered proportional to ATP consumed, as determined from measurements of residual [ATP] with the luciferase-based reagent Kinase-Glo (Promega) following incubation. Luminescence (proportional to residual [ATP]) was measured on the plate readers FLx800 (BioTek Instruments, Winooski, VT, USA) and MicroBeta2.
T2 sequence (O77239 whole entry): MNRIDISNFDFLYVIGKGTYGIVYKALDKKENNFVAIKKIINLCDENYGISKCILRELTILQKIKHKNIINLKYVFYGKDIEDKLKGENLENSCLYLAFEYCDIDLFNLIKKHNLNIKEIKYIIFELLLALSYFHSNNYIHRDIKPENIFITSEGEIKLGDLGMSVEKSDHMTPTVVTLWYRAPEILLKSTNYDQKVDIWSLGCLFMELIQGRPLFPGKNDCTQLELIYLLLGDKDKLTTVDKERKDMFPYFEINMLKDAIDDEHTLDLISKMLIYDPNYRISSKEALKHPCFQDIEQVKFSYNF

[3] = target: Calcium-dependent protein kinase 1 (Plasmodium falciparum, UniProt P62344); experiment: MMV: CDPK1 Protein kinase inhibition assay using recombinant PfCDPK1, syntide 2 peptide substrate, ATP and KinaseGlo to measure % inhibition at 1 uM MMV box compound.
[4] = target: T3, Mitogen-activated protein kinase (Plasmodium falciparum, UniProt Q25917); experiment: Final concentrations were 1 uM ATP, 0.5 mM DTT, 1 mM MgCl2, 0.5 mg/mL BSA, and 10 ug/ml MAP2 in a buffer of 50 mM HEPES (pH 7.0). 0.5 mg/mL histone III-S served as the substrate (13); 100 uM AMP-PNP, an ATP analog, was used as a control inhibitor. Incubation time was 4 hours.
T3 sequence (Q25917 whole entry): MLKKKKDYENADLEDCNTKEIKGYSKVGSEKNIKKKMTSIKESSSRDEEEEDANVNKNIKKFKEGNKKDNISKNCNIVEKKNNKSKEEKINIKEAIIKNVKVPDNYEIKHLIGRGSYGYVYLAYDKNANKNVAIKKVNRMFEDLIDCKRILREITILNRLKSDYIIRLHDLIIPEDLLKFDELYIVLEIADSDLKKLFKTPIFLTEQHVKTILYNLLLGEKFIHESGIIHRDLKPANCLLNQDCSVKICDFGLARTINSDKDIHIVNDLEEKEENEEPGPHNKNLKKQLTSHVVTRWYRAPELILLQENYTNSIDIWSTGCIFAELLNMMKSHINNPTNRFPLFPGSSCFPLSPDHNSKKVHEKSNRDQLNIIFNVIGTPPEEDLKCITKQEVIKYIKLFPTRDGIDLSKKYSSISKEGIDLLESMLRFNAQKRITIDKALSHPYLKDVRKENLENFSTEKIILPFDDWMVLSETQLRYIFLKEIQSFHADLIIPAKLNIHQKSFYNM

[5] = target: Lysine--tRNA ligase (Plasmodium falciparum (isolate 3D7), UniProt Q8IDJ8); experiment: MMV: KRS recombinant Plasmodium falciparum Lysyl-tRNA-synthetase, assay with yeast tRNA, ATP, and lysine and 3 uM MMV malaria box compound, assay read out with kinase glo as % inhibition.
[6] = target: T4, Putative uncharacterized protein pk7 (Plasmodium falciparum, UniProt O96214); experiment: Final concentrations were 1 uM ATP, 2 mM DTT, 20 mM MgCl2, 2 mM MnCl2, 0.01% BSA, and 6 ug/ml PK7, in a buffer of 20 mM Tris-HCl (pH 7.5). The enzyme itself was the only substrate present (since autophosphorylation occurs); 100 uM 1NA-PP1 was used as a control inhibitor. Incubation time was 3 hours.
T4 sequence (O96214 whole entry): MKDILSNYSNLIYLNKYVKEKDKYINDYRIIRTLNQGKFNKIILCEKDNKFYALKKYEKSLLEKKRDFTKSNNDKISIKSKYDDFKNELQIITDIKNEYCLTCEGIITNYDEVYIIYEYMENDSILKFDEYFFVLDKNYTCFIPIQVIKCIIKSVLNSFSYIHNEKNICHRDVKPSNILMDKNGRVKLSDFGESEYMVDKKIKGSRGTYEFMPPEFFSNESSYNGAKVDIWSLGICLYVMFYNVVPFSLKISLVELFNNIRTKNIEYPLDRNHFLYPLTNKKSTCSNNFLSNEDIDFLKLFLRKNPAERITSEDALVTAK

[7] = target: T5, Calcium-dependent protein kinase 4 (Plasmodium falciparum (isolate 3D7), UniProt Q8IBS5); experiment: MMV: CDPK4 Protein kinase inhibition assay using recombinant PfCDPK4, syntide2 peptide substrate, ATP and KinaseGlo to measure % inhibition at 1 uM MMV box compound.
T5 sequence (Q8IBS5 whole entry): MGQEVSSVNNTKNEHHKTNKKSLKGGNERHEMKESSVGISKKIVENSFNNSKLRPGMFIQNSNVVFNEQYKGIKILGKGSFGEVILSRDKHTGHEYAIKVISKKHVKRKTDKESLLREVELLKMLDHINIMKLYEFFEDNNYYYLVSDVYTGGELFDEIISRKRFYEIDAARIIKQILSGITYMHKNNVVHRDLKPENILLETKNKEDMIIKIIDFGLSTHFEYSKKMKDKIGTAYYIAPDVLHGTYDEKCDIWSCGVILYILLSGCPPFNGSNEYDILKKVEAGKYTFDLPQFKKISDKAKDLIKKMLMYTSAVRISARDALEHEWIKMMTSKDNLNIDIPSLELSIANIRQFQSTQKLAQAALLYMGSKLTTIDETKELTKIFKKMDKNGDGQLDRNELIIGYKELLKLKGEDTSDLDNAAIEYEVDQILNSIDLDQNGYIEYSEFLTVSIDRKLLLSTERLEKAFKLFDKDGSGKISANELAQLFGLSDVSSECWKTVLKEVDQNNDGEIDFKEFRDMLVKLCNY

Chain of Lysine--tRNA ligase (Q8IDJ8 whole entry): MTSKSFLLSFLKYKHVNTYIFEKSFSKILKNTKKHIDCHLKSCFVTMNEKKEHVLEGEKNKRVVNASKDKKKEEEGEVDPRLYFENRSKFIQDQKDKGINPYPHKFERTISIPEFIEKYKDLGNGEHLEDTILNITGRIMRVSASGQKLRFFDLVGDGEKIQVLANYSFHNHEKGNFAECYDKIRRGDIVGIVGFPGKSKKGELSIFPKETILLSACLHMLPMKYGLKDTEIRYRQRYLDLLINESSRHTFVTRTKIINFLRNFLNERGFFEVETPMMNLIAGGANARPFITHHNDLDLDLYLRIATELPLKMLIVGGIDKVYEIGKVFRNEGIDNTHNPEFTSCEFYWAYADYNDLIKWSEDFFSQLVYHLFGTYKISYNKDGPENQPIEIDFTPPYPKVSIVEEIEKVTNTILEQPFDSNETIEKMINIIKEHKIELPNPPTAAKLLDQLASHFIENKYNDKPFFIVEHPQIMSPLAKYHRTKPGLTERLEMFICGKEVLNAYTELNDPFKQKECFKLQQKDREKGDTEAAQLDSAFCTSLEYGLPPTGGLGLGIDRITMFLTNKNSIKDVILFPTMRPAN
Chain of Calcium-dependent protein kinase 1 (P62344 whole entry): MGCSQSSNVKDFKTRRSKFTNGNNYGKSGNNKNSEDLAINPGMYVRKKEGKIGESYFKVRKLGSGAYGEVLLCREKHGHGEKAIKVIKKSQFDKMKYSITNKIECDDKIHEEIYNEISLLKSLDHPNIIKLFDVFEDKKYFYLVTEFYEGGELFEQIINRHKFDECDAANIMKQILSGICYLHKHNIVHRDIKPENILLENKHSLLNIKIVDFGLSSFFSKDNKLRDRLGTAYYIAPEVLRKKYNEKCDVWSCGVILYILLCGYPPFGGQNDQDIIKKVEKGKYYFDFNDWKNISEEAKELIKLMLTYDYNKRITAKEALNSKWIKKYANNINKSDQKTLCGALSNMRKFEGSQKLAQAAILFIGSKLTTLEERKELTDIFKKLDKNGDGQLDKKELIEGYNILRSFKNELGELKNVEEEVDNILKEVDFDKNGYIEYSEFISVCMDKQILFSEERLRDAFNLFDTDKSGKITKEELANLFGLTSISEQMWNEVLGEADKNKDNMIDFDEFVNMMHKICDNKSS

| SMILES | pIC50 [1] | pIC50 [2] | pIC50 [3] | pIC50 [4] | pIC50 [5] | pIC50 [6] | pIC50 [7] |
| --- | --- | --- | --- | --- | --- | --- | --- |
| COc1cccc(Cn2c(Oc3ccccc3)nc3c2c(=O)n(C)c(=O)n3C)c1 | < 5.60 | < 6.00 | < 6.00 | < 6.00 | < 5.60 | < 6.00 | < 6.00 |
| CCOc1ccccc1CN1CCc2nc3cc(C(C)(C)C)nn3c(O)c2C1 | < 5.60 | < 6.00 | < 6.00 | < 6.00 | < 5.60 | < 6.00 | < 6.00 |
| Cc1cc(N2CCCC2)nc(Nc2ccc(NC(=O)CCc3ccccc3)cc2)n1 | < 5.60 | < 6.00 | < 6.00 | < 6.00 | < 5.60 | < 6.00 | < 6.00 |
| CN1CCN(c2ncnc3c2[nH]c2ccc(Cl)cc23)CC1 | < 5.60 | < 6.00 | < 6.00 | < 6.00 | < 5.60 | < 6.00 | < 6.00 |
| CN(C)CCNc1cc(-c2ccccc2)nc2ccccc12 | < 5.60 | < 6.00 | < 6.00 | < 6.00 | < 5.60 | < 6.00 | < 6.00 |
| COc1ccc2nc(C)cc(Nc3cccc(O)c3)c2c1 | < 5.60 | < 6.00 | < 6.00 | < 6.00 | < 5.60 | < 6.00 | < 6.00 |
| CN(C)CCCNCc1ccc(-c2ccc(F)c(Cl)c2)o1 | < 5.60 | < 6.00 | < 6.00 | < 6.00 | < 5.60 | < 6.00 | < 6.00 |
| Cc1sc2ncnc(Sc3nc4ccccc4[nH]3)c2c1C | < 5.60 | < 6.00 | < 6.00 | < 6.00 | < 5.60 | < 6.00 | < 6.00 |
| CCC(=O)Nc1nnc(Cc2ccc(OC)c(OC)c2)s1 | < 5.60 | < 6.00 | < 6.00 | < 6.00 | < 5.60 | < 6.00 | < 6.00 |
| O=C(Nc1ccc(CN2CCOCC2)cc1)c1ccc(-c2cc(Cl)ccc2Cl)o1 | < 5.60 | < 6.00 | < 6.00 | < 6.00 | < 5.60 | < 6.00 | < 6.00 |
| COc1cccc(C(=O)Nc2ccc(-c3nc4ccccc4[nH]3)cc2)c1 | < 5.60 | < 6.00 | < 6.00 | < 6.00 | < 5.60 | < 6.00 | < 6.00 |
| CCOc1ccccc1NC(=O)CN1CCN(C(=O)c2ccco2)CC1 | < 5.60 | < 6.00 | < 6.00 | < 6.00 | < 5.60 | < 6.00 | < 6.00 |
| CCOc1cc2c(cc1OCC)C(c1cc(C)c(O)c(C)c1)NCC2 (centres undefined) | < 5.60 | < 6.00 | < 6.00 | < 6.00 | < 5.60 | < 6.00 | < 6.00 |
| CC(C)c1ccc(CNCC(O)c2ccccc2)cc1 (centres undefined) | < 5.60 | < 6.00 | < 6.00 | < 6.00 | < 5.60 | < 6.00 | < 6.00 |
| Oc1ccc(Br)cc1CN1CCN(Cc2cccc(F)c2)CC1 | < 5.60 | < 6.00 | < 6.00 | < 6.00 | < 5.60 | < 6.00 | < 6.00 |
| CN(C)c1ccc(N2C(N)=NC(N)=NC2(C)C)cc1 | < 5.60 | < 6.00 | < 6.00 | < 6.00 | < 5.60 | < 6.00 | < 6.00 |
| Oc1c(CN2CCN(c3ccccc3F)CC2)cc(Br)c2cccnc12 | < 5.60 | < 6.00 | < 6.00 | < 6.00 | < 5.60 | < 6.00 | < 6.00 |
| Clc1ccc2c(N3CCCC3)ccnc2c1 | < 5.60 | < 6.00 | < 6.00 | < 6.00 | < 5.60 | < 6.00 | < 6.00 |
| CCOC(=O)C1CCN(C(=O)CN2C(=O)c3ccccc3C2c2c[nH]c3ccccc23)CC1 (centres undefined) | < 5.60 | < 6.00 | < 6.00 | < 6.00 | < 5.60 | < 6.00 | < 6.00 |
| O=c1c2c([nH]c3ccccc13)CCCC2 | < 5.60 | < 6.00 | < 6.00 | < 6.00 | < 5.60 | < 6.00 | < 6.00 |
| Cc1c(C)n(CC(O)CNC2CCCCC2C)c2ccccc12 (centres undefined) | < 5.60 | < 6.00 | < 6.00 | < 6.00 | < 5.60 | < 6.00 | < 6.00 |
| CCCCN(CCCC)S(=O)(=O)c1ccc(NC(=O)c2ccco2)cc1 | < 5.60 | < 6.00 | < 6.00 | < 6.00 | < 5.60 | < 6.00 | < 6.00 |
